Data published in patent publication US4073786A, “2-Amino-4-hydroxy-6-hydroxymethyl-7,7-diethyl-7,8-dihydropteridine and the 7-spirocyclohexyl analogue thereof” (Burroughs Wellcome Co., priority 1975, dated 1978).

Key:
Cl. perfringens = conditions: British Pat. No. 1303171 and Application No. 36289/70; cited from earlier work
Derm. dermatonomous = conditions: British Pat. No. 1303171 and Application No. 36289/70; cited from earlier work
Staphylococcus aureus = assay: Inhibitor zone test, pteridine in agar with TMP and/or SMX in the well; type: cell-based; conditions: conclusion from Table 3
Procedure: The pteridine was included in a soya peptone medium of low thymidine content (Wellcotest Sensitivity test agar) contained in a Petri dish and the other component(s) added to the well resulting from the removal of a small plug from the medium. The surface of the medium was inoculated with the test organism and then incubated. The amount of zone inhibition is shown in Table 3, wherein the numbers represent the complete zone inhibition (i.e. the number of […] from the edge of the well after about 6 × magnification) and the figures in parenthesis include the zones of partial inhibition.

[1] = target: hydroxymethyldihydropteridine pyrophosphokinase (HMPPS) (Escherichia coli, UniProt P26281); assay: Inhibition of the enzymes forming dihydropteroic acid (HMPPS ATP-γ-P32 transfer assay; synthetase pAB-C14 assay); type: biochemical; conditions: E. coli extract enzymes; result of tests (a) HMPPS and (b) synthetase
Procedure: The inhibiting activity against HMPPS of a selected compound of formula (I) can, for instance, be tested by monitoring the transfer of the terminal phosphate of adenosinetriphosphate/ATP-γ-P^32 to `dihydropteridine`. […] Such inhibition may, for instance, be easily and simply carried out by incubating an extract of E. coli with pAB-7-C^14, ATP, Mg and `dihydropteridine`. The formation of the dihydropteroate-C^14 can be quantitatively assayed after separating the unreacted pAB substrate, for instance by chromatography. […] Preferably the value is 25μM or less, such as in the range between 2 to 12μM. Generally a value below 7μM is desirable. […]
(a) An assay for HMPPS was developed in which the transfer of the terminal phosphate of ATP-γ-P^32 to Pt could be monitored and correlated with the amount of inhibition of HMPPS by the compound under test. […]
Tubes 1 to 9 containing the amounts of components shown in the Table, were filled up to 200μl with distilled water, incubated for 60 minutes at 37° C and then chilled on ice. […] The charcoal and the filter were then radioactively counted. […]
(b) The activity of the test compound of formula (I) against `synthetase` was determined as follows, by monitoring the formation of dihydropteroate C^14. […]

Sequence of hydroxymethyldihydropteridine pyrophosphokinase (HMPPS) (P26281 whole entry): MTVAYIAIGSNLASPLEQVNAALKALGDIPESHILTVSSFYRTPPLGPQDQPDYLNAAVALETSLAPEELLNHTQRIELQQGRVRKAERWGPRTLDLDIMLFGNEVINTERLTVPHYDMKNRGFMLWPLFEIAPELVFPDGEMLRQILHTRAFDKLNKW

Compound | bacteriostatic activity (Cl. perfringens) | bacteriostatic activity (Derm. dermatonomous) | synergistic activity with TMP and/or SMX (Staphylococcus aureus) | IC50 [1] [µM]
CC1=Nc2c(nc(N)[nH]c2=O)NC1(C)C [2-amino-4-hyroxy-6-methyl-7,7-dimethyl-7,8-dihydropteridine] | particularly effective | particularly effective |  | 
CCC1(CC)Nc2nc(N)nc(O)c2N=C1CO [R=CH2 OH R^1 =R^2 =Et, 2-amino-4-hydroxy-6-hydroxymethyl-7,7-diethyl-7,8-dihydropteridine] |  |  | synergism with TMP and SMX alone and multiple synergism with both | 2.1
CC1(C)Nc2nc(N)nc(O)c2N=C1CO [2-amino-4-hydroxy-6-hydroxymethyl-7,7-dimethyl-7,8-dihydropteridine] | particularly effective | particularly effective |  | 
